One data set concerns T47D. Briefly: Antiproliferative activity against human T47D cells expressing PI3Kalpha H1047R mutant assessed as inhibition of cell proliferation measured after 72 hrs by CellTiter-Glo reagent based assay. The data set is classed as functional.
A short description of data set [1]: Cytotoxicity against human SK-BR-3 cells expressing wild type PI3Kalpha assessed as inhibition of cell proliferation measured after 72 hrs by CellTiter-Glo reagent based assay. The data set is classed as toxicity.
Data set [2] can be described thus: AUC(last) in CD-1 mouse at 10 mg/kg, po by LC/MS/MS analysis. The note with it: in vivo. The data set is classed as ADME, organism-based.
A short description of data set [3]: Oral bioavailability in CD-1 mouse at 10 mg/kg by LC/MS/MS analysis. The data set is classed as ADME, organism-based. The note with it: in vivo.

On to `Cc1cc(C(C)Nc2ccc(F)cc2C(=O)O)c2nc(N3CCN(CC(F)(F)F)CC3)n(C)c(=O)c2c1` (stereo not drawn), for which the EC50 with T47D amounted to 0.001 µM. The EC50 at 72 h in data set [1] is 2 µM.
Consider `Cc1cc(C(C)Nc2ccc(F)cc2C(=O)O)c2nc(N3CCC(C)(C)CC3)n(C)c(=O)c2c1` (stereo not drawn), for which the EC50 in the data set with T47D was 0.001 µM. In addition, the EC50 at 72 h in data set [1] came to 2 µM. Besides, the AUC(0-t) in data set [2] came out at 10700 ng·h/mL. For the same compound, the bioavailability in data set [3] was found to be 61%.
As to `Cc1cc(C(C)Nc2ccc(Cl)cc2C(=O)O)c2nc(N3Cc4ccc(F)cc4C3)n(C)c(=O)c2c1` (stereo not drawn), in the data set with T47D, the EC50 is 0.001 µM. The EC50 at 72 h in data set [1] amounted to 2 µM.
For `CC(Nc1ccccc1C(=O)O)c1cc(C(F)(F)F)cc2c(=O)n(C)c(N3CCN(CC(F)(F)F)CC3)nc12` (stereo not drawn), the EC50 with T47D was 0.5 µM. Besides, in data set [1], the EC50 at 72 h is 2 µM.
`Cc1cc(C(C)Nc2ccccc2C(=O)O)c2nc(N3CC[Si](C)(C)CC3)n(C)c(=O)c2c1` (stereo not drawn): the EC50 in the data set on T47D amounted to 0.5 µM. The EC50 at 72 h in data set [1] is 2 µM.
As to `CC(Nc1ccccc1C(=O)O)c1cc(Cl)cc2c(=O)n(C)c(N3CCN(CC(F)(F)F)CC3)nc12` (stereo not drawn), in the data set with T47D, the EC50 worked out at 0.5 µM. Further, in data set [1], the EC50 at 72 h was more than 15 µM.
On to `Cc1cc(C(C)Nc2ccccc2C(=O)O)c2nc(N3Cc4ccc(C#N)cc4C3)n(C)c(=O)c2c1` (stereo not drawn), for which, in the data set on T47D, the EC50 amounted to 0.001 µM. The EC50 at 72 h in data set [1] was more than 15 µM.
On the same counts, the results for `CC(Nc1ccc(F)cc1C(=O)O)c1cc(F)cc2c(=O)n(C)c(N3CCN(CC(F)(F)F)CC3)nc12` (stereo not drawn) are 0.001 µM and more than 15 µM.

Values taken from ChEMBL document CHEMBL5579870, “Integrating Neuroprotective and Anti-inflammatory Strategies in the Development of PI3K Inhibitors for Enhanced Cancer Therapy” (ACS Med Chem Lett, 2024).
